The values that follow come from patent US20260315446A1, “ANTIFUNGAL COMPOUNDS AND USES THEREOF” (priority 2023, published 2026).

Each structure is given as a SMILES string. “Also recorded” adds a separate entry of the source.

In series [1] the test system is germinal center (GC) B cells. Kind of series: In vivo immunosuppression, germinal center B cells (Example 1). Further details: species or system mouse (C57BL/6). As to conditions: daily i.p., FK506 5 mg/kg or JH-FK-05 60 mg/kg; day 7. As for the experimental part: Based on the in vitro evidence of reduced immunosuppressive activity of JH-FK-05, it was hypothesized that this reduction would translate into reduced immunosuppression in an in vivo model. The murine model for immunosuppression measures the T cell-dependent proliferation of two immune cell subtypes in response to immunization with an antigen. Animals were treated daily via intraperitoneal (i.p.) injection with vehicle, 5 mg/kg FK506, or 60 mg/kg JH-FK-05, beginning on day −1 and ending on day 7. […] On day 0, animals were immunized with NP-OVA to stimulate T cell-dependent signaling that would result in proliferation of T follicular helper (Tfh) cells and germinal center (GC) B cells. Animals were sacrificed on day 7, and the proportions of Tfh and GC B cells in the lymph nodes were measured. […]
Groups of 6 female C57BL/6 mice (Jackson Laboratory) were treated daily by intraperitoneal (i.p.) injection with about 100 μL vehicle, 5 mg/kg FK506, or 60 mg/kg JH-FK-05 beginning on day −1. […] Mice were treated and monitored daily until they were sacrificed on day 7. Draining lymph nodes were harvested on day 7, and the populations of T follicular helper cells and GC B cells were analyzed by flow cytometry. Tfh and GC B cells were measured from T Cell Receptor β (TCRβ^+) CD4^+CD44^hi cells and TCRβ^−CD19^+ cells, respectively.

Series [2] is described as follows: In vivo tolerability of JH-FK-08. Further details: species or system mouse (A/J). As to conditions: 40 mg/kg once daily, 14 days. As for the experimental part: FIG. 14: In vivo tolerability of JH-FK-08. Maximum tolerated dose study of female A/J mice (n=3). Animals received once daily (A) and twice daily (B) dosing, and weight over time was plotted as percent change from initial body weight.
Based on the in vitro fungal and mammalian calcineurin inhibition data, the panel of FK520 analogs was assessed and ranked. Therapeutic index (TI) scores were used to quantify the effects of structural modification on the compounds (Table 8). Therapeutic index scores were calculated for each analog as the ratio of relative change in immunosuppressive and antifungal activities compared to FK506 as previously utilized (see, I-Toy M J, et at. 2022. mBio 13:e0104922). This ratio of therapeutic benefit and host toxicity, or fungal and mammalian calcineurin inhibition, allowed us to quantify and rank these analogs. […] This is the greatest TI found within the library and allowed us to identify JH-FK-08 as a lead candidate for an in vivo study. Tolerability of JH-FK-08 was assessed by monitoring animal responses to drug dosing across 14 days, including changes in weight, fur condition, and behavior. A maximum dose of 40 mg/kg was tested in once a day dosing, and due to solubility limitations, the tolerability of JH-FK-08 at 60 and 80 mg/kg total daily doses was assessed by dosing two equal doses per day (FIG. 14). […]

Series [3] deals with C. neoformans strain H99. The series is described as follows: Murine cryptococcal infection, brain fungal burden (Example 3). Type of series: in vivo, Cryptococcus neoformans in A/J mice. As to conditions: 14 days; fluconazole 6 mg/kg, JH-FK-08 40 mg/kg, i.p. twice per day. As for the experimental part: In vivo antifungal activity and therapeutic benefit were assayed by investigating the impact of the FK520 analog on organ fungal burden during cryptococcosis. Specifically, the in vivo efficacy of JH-FK-08 on fungal burden was assessed using A/J female mice. Immunodeficient A/J mice were selected in part due to their defect in complement component five and their susceptibility to cryptococcal infection. Treatment groups included vehicle of 10% Kolliphor: ethanol (1:1) in phosphate-buffered saline (PBS), 6 mg/kg fluconazole, 40 mg/kg JH-FK-08, or the fluconazole and JH-FK-08 combination, all given via intraperitoneal (i.p.) injection twice per day beginning at 4 hours post infection. […] Mice were intranasally infected with C. neoformans strain H99, and fungal burden in the lung, spleen, and brain was assessed after 14 days of treatment.
C. neoformans inoculum was prepared by growing a 5-mL overnight YPD culture spinning in a tissue culture roller drum at 30° C. Cells were pelleted by centrifugation and washed in sterile PBS three times. Cell density was determined by hemocytometer, and cells were diluted to 2×10^6 cells/mL. Mice (10 to 20 g) were infected with 10^5 cells of C. neoformans H99. […] Following inhalation of the inoculum, animals were monitored for post anesthesia recovery. […] Fungal burden was assessed 24 h after the final dose. […]

Series [4] deals with C. neoformans strain H99. The series is described as follows: Survival during cryptococcal infection (Example 3). In kind it is in vivo, Cryptococcus neoformans in A/J mice. As for the experimental part: Finally, whether the antifungal efficacy translates into extended survival during infection was assessed. To test the impact of treatment on survival, murine survival was monitored in the cryptococcosis infection model. Following the same protocol of infection and dosing as in the fungal burden experiment, animal survival was monitored following infection and 2 weeks of intraperitoneal dosing. Fluconazole treatment extended median survival from 16 to 27 days.
C. neoformans inoculum was prepared by growing a 5-mL overnight YPD culture spinning in a tissue culture roller drum at 30° C. Cells were pelleted by centrifugation and washed in sterile PBS three times. Cell density was determined by hemocytometer, and cells were diluted to 2×10^6 cells/mL. Mice (10 to 20 g) were infected with 10^5 cells of C. neoformans H99. For inhalation infection, animals were anesthetized with isoflurane before 50 μL of inoculum was pipetted onto the upright nasal passages of each animal. Following inhalation of the inoculum, animals were monitored for post anesthesia recovery. Treatment of animals began 4 hours post infection and was continued for 14 days. Fungal burden was assessed 24 h after the final dose.
For survival curve analysis, animals were monitored until reaching defined humane end points, including social isolation, hunched posture, weight loss, lack of grooming, and labored breathing, and were then euthanized via CO2 inhalation. For fungal burden analysis, mice were euthanized following 2 weeks of treatment with a designated antifungal, vehicle, or combination. Brain, lung, and spleen were harvested from animals, weighed, and homogenized in sterile PBS using steel beads and a bead beater. Each organ homogenate was serially diluted 10-fold to 10-4 in PBS. One hundred microliters of each dilution was plated on YPD plates supplemented with YPD 50 μg/mL ampicillin and 30 μg/mL chloramphenicol, incubated at 30° C. for 2 days, and assessed for colony-forming units. CFU per organ weight was calculated and plotted using GraphPad Prism 9.

`C=CCC1C=C(C)CC(C)CC(OC)C2OC(O)(C(=O)C(=O)N3CCCCC3C(=O)OC(C(C)=CC3CCC(O)C(OC)C3)C(C)C(O)CC1=O)C(C)CC2OC` (centres unmarked) [FK506, reference compound]: in series [1], the “proliferation/presence of GC B cells” value is listed as “significantly reduced the proliferation”.
The same measure, in the same setting: the same measure for `CC[C@@H]1/C=C(\C)C[C@H](C)C[C@H](OC)[C@H]2O[C@@](O)(C(=O)C(=O)N3CCCC[C@H]3C(=O)O[C@H](/C(C)=C/[C@@H]3CC[C@@H](O)[C@H](OC)C3)[C@H](C)[C@@H](O)C/C1=N/NC(C)=O)[C@H](C)C[C@@H]2OC` [JH-FK-05]: “did not reduce the presence of either cell type and was statistically indistinguishable from the vehicle treatment”.
As to `CC[C@@H]1/C=C(\C)C[C@H](C)C[C@H](OC)[C@H]2O[C@@](O)(C(=O)C(=O)N3CCCC[C@H]3C(=O)O[C@H](/C(C)=C/C3CC[C@@H](O)[C@H](OC)C3)[C@H](C)[C@@H](O)C/C1=N/NC(=O)OC)[C@H](C)C[C@@H]2OC` (some centres unmarked) [JH-FK-08], the “tolerability” value in series [2] (60 and 80 mg/kg total daily in two equal doses) is given as “Animals tolerated all dosages”. For the same compound, the “weight difference from vehicle-treated animals” value in series [2] (60 and 80 mg/kg total daily) is listed as ≤ 10%. Further, the “brain fungal burden” value in the series on C. neoformans strain H99 [3] is “no detectable fungal burden”. For the same compound, the “survival compared to vehicle/untreated” value in the series with C. neoformans strain H99 [4] (2 weeks twice daily i.p. 40 mg/kg, 40 mg/kg) is reported as “more than doubled median survival; also recorded: more than double murine survival time”. Further, in the series on C. neoformans strain H99 [4] (2 weeks twice daily i.p., fluconazole 6 mg/kg, JH-FK-08 40 mg/kg, vehicle 16 days), the median survival was 33 days. For the same compound, in the series with C. neoformans strain H99 [4] (in vivo), the “combination effect with fluconazole” value was “additive activity in combination with fluconazole in vivo”.
